Measured values: US7396624B2, “Electrophotographic photoreceptor containing naphthalenetetracarboxylic acid diimide derivatives and electrophotographic imaging apparatus employing the same” (Samsung Electronics Co., Ltd., priority 2004, dated 2008)

assay: Solubility Test (amount of methylene chloride to completely dissolve 1 g of compound); format: physicochemical; conditions: room temperature, methylene chloride added dropwise while stirring
Procedure: 1 g of the compound to be tested was added to a test tube at room temperature and methylene chloride was added dropwise while stirring to determine the amount of methylene chloride required to completely dissolve 1 g of the test compound.

Amount of methylene chloride required to dissolve 1 g of a compound | Structure (SMILES)
25 g | CC(C)N1C(=O)c2ccc3c4c(ccc(c24)C1=O)C(=O)N(C(C)C)C3=O [Comparative Compound (9a)]
17.5 g | CCC(CC)N1C(=O)c2ccc3c4c(ccc(c24)C1=O)C(=O)N(C(CC)CC)C3=O [Comparative Compound (10a)]
3.5 g | CC(c1ccccc1)N1C(=O)c2ccc3c4c(ccc(c24)C1=O)C(=O)N(C(C)c1ccccc1)C3=O (stereo not shown) [Compound (1)]
2 g | CCC(c1ccccc1)N1C(=O)c2ccc3c4c(ccc(c24)C1=O)C(=O)N(C(CC)c1ccccc1)C3=O (stereo not shown) [Compound (2)]
